Test results published in publication PMC6968641, “N-monoarylacetothioureas as potent urease inhibitors: synthesis, SAR, and biological evaluation” (Journal of Enzyme Inhibition and Medicinal Chemistry, 2019).
Values after ≈ are worked out from the molar mass of the structure shown. Like-named read-outs stand apart in the source and are kept apart here.

How the values were obtained:
H. pylori = assay: Minimum inhibitory concentration, broth microdilution (CLSI); type: cell-based, Helicobacter pylori (ATCC 43504); settings: Helicobacter pylori
Description: H. pylori (ATCC 43504; […] The minimum inhibitory concentration (MIC) values were determined using the broth microdilution protocol according to the methods of the Clinical and Laboratory Standards Institute (CLSI)[21].

[1] = Cytotoxicity MTT assay, L-02; type: cell-based; settings: human, L-02 cells (normal hepatic cell line), 25 μg/mL
Description: (§1) The stock solutions of the selected compounds (250 µg/mL, in PBS) were prepared in medium. L-02 cells and P69 cells were grown in medium (90% RPMI-1640 medium, 10% foetal bovine serum, 1% penicillin/streptomycin) and maintained at 37 °C in a humidified atmosphere containing 5% CO2, respectively. Cells were seeded in 96-well cell culture plates. On the day when seeding, the cells were exposed to 250 µg/mL of compounds and further cultured for 72 h at 37 °C. Cell proliferation was then determined using the thiazolyl blue tetrazolium bromide (MTT) assay.

H. pylori urease = target: T1, H. pylori urease (Helicobacter pylori, UniProt P69996); assay: Urease inhibition, extracted H. pylori urease (indophenol method); type: biochemical; settings: IC50 Extracted urease, extracted H. pylori urease
T1 construct: endogenous in cells; host or cells: H. pylori ATCC 43504; sonicated, supernatant desalted on Sephadex G-25 (crude extract)
T1 sequence (P14916 whole entry): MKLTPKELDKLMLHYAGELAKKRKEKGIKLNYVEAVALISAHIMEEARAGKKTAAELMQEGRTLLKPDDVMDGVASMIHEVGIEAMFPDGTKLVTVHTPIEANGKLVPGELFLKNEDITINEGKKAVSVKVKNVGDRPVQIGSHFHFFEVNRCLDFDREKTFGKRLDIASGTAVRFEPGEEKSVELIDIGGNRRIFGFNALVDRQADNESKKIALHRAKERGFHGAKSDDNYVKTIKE
T1 sequence (P69996 whole entry): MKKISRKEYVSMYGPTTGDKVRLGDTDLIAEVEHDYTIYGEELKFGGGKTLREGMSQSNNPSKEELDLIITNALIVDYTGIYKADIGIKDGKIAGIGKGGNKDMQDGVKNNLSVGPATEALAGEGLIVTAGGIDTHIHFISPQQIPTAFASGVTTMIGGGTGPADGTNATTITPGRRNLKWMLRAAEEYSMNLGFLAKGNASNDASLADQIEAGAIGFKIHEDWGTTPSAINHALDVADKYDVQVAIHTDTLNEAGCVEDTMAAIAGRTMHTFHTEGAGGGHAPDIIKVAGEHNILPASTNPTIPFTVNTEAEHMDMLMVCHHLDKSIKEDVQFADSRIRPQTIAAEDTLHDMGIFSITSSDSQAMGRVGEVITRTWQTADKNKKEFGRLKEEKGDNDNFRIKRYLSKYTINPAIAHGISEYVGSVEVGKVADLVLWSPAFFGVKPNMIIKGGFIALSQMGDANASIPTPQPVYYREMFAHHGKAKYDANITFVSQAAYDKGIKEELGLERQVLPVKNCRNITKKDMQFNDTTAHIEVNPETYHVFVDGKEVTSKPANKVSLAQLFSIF
Description: For urease inhibition assays, 50 mL broth cultures (2.0 × 10^8 CFU/mL) were centrifuged (5000×g, 4 °C) to collect the bacteria, and after washing twice with phosphate-buffered saline (pH 7.4), the H. pylori precipitation was stored at –80 °C for 8 h, and then was returned to room temperature, and after addition of 3 mL of distilled water and protease inhibitors, sonication was performed for 60 s. Following centrifugation (15,000×g, 4 °C), the supernatant was desalted through Sephadex G-25 column (PD-10 columns, Amersham Pharmacia Biotech, Uppsala, Sweden). The resultant crude urease solution was added to an equal volume of glycerol and stored at 4 °C until use in the experiment.
Urease activity was determined in the 96-well assay plate by measuring ammonia production using the indophenol method as described by Weatherburn[20]. Briefly, to each well, 50 µL of urea (10 mM) in phosphate buffer solution was added in a mixture of 25 µL (10 U) of H. pylori urease and 25 µL of the test compound, which was incubated at 37 °C for 0.5 h. Fifty µL of phenol reagent (containing 127 mM phenol and 0.168 mM sodium nitroprusside) and 50 µL of alkali reagent (containing 125 mM NaOH and 0.168 mM NaOCl) were added in turn. The resulted mixture was incubated at 37 °C for another 0.5 h for colouration developing. The increasing absorbance was measured at 630 nm after 50 min using a microplate reader (Molecular Devices, San Jose, CA). Percentage inhibitions were calculated from the following formula (Equation (1)). Experiments were performed in triplicate and AHA was used as reference drug, and the IC50 value was determined as the concentration of compound that give 50% inhibition of maximal activity. As for the urease assay of intact cells, 25 µL (10 U) of H. pylori urease was replaced by 25 µL of cell suspension (4.0 × 10^7 CFU/mL).

Jack bean urease [2] = target: T2, Jack bean urease (Canavalia ensiformis, UniProt P07374); assay: Enzyme kinetic study (indophenol method); type: biochemical
T2 construct: purchased
T2 sequence (P07374 whole entry, looked up): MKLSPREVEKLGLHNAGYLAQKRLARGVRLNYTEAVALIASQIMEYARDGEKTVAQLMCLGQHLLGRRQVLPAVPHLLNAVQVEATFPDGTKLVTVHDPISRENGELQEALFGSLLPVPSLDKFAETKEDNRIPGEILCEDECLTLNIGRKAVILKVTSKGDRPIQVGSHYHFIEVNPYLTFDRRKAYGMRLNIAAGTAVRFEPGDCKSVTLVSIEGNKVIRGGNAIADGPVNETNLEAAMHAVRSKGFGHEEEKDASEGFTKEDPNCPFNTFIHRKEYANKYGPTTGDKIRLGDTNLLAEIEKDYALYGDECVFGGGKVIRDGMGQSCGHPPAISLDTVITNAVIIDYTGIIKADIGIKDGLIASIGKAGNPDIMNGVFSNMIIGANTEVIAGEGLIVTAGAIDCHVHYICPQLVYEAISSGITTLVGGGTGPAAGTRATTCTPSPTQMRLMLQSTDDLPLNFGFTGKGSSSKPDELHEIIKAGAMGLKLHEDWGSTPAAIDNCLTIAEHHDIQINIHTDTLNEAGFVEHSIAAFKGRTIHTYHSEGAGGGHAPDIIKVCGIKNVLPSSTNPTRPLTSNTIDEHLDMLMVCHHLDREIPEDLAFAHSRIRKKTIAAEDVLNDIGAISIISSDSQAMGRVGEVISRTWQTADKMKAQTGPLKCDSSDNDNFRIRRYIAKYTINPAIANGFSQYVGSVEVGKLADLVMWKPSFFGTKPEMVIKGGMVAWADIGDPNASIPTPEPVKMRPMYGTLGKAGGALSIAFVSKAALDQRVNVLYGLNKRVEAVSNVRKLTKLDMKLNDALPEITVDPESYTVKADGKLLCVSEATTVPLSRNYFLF
Description: Based on the indophenol method, the velocity of ammonia production (V) was measured in the presence of concentration gradients of urea ([S]) for every specific concentration of selected compounds ([I]). Nonlinear fitting curves to data of V and [S] were used to determine the type of enzyme inhibition based on the general kinetics equation (Equation (1)). Subsequently, the resulted fitting constants ( Km/Vmax(1+[I]/Ki) or 1/Vmax(1+[I]/Ki′) ) and [I] were linearly fitted to give kinetic parameters Ki and Ki', respectively. The experimental assay was performed against a pure urease (Jack bean urease) for the consideration of precision. (1) V=Vmax[S]/Km(1+[I]/Ki)+(1+[I]/K^′i)[S]
Mazzei et al. confirmed that urease shared the mechanism of catalysis and inhibition regardless of the biological sources[27]^,[28]. For excluding the possible interference, a pure urease (Jack bean urease) was therefore used for kinetic assays. As an example, Figure 2 describes the preincubation-time dependence of urease inhibition by b19. The suppressed urease activity maintained at relatively constant values with the increasing preincubation time under different concentrations of b19, resulting in nearly equal IC50 values.
Similarly, kinetic parameters ( Ki and Ki' ) and inhibition types of other compounds were also determined and are shown in Table 3.

[3] = Cytotoxicity MTT assay, P69; type: cell-based; settings: human, P69 cells (normal prostate cell line), 25 μg/mL
Description: as §1

Jack bean urease [4] = target: T2, Jack bean urease; assay: Ligand affinity by surface plasmon resonance (SPR); type: binding
Description: The binding kinetics of selected compounds were assayed via surface plasmon resonance (SPR) using an OPEN SPR instrument (Nicoya Lifesciences, Kitchener, Canada). First, urease dissolved (50 µg/mL) in PBS buffer (1 mM KH2PO4, 155 mM NaCl, 3 mM Na2HPO4-12H2O, pH 7.4), was immobilised to a CM5 chip using a standard amine coupling procedure. Then, SPR measurements were carried out in PBS, and stock solutions were diluted in the same buffer. Data were collected with OpenSPR control software. Experiments were performed by monitoring the refractive index changes as a function of time under constant flow rate of 20 µL/min. The relative amount of inhibitor bound to the urease was determined by measuring the net increase in refractive index over time compared to control running buffer. There is an inline subtraction of reference surface during the run. This change is usually reported in response units (RU). Sensograms were processed and analysed using TraceDrawer software. The binding curves were fit to determine the equilibrium dissociation constant (KD).
In the present paper, the pure Jack bean urease from commercial was used for this assay because of non-availability of pure H. pylori urease. […] For efficient and tight ligand binding, the rate constant koff is of particular interest, because koff has a potential to differentiate indistinguishable compounds with similar affinities.

[5] = target: T3, urease in intact H. pylori cell (Helicobacter pylori, UniProt P69996); assay: Urease inhibition in intact H. pylori cell (indophenol method); type: cell-based
T3 construct: H. pylori urease was replaced by 25 µL of cell suspension (4.0 × 10^7 CFU/mL); endogenous in cells; host or cells: intact H. pylori ATCC 43504 cells
T3 sequence (P69996 whole entry): as the sequence (P69996 whole entry) above
T3 sequence (P14916 whole entry, further chain): as the sequence (P14916 whole entry) above

In the case of `NC(=S)NC(=O)Cc1ccc(F)cc1` [b23], the MIC (H. pylori; pH=4.0, read-out: MIC pH=4.0) is reported as 8 µM (≈ 1.7 µg/mL), the MIC (H. pylori; pH=7.0, read-out: MIC pH=7.0) is reported as > 64 µM and the viability at 72 h, 25 µg/mL [1] is reported as 96.1%. The melting point was 165.4 to 166.5 °C, the IC50 (H. pylori urease) was 14.6 ± 1 µM and the Ki (Jack bean urease [2]) was 3.53 µM. For the same compound, the Type of inhibition (Jack bean urease [2]; Jack bean urease) was “Reversible”, the “Ki'” value (Jack bean urease [2]; dissociation constant of urease-urea-inhibitor complex) was 9.67 µM and the viability at 72 h, 25 µg/mL [3] was 97.6%. The Kd (Jack bean urease [4]) was 0.569 ± 0.0216 µM, the kon (Jack bean urease [4]; pH 7.4) was 54300 M⁻¹ s⁻¹ and the koff (Jack bean urease [4]; pH 7.4, SPR, immobilised urease, PBS pH 7.4) was 0.0309 s⁻¹. For the same compound, the IC50 [5] was 93.6 ± 5.5 µM.
